Converted amounts (≈) assume the structure as drawn.
Columns and labels:
S. aureus ATCC 29213 = experiment: Antibacterial activity in vitro, broth microdilution MIC; assay type: cell-based, Staphylococcus aureus; settings: for MIC S. aureus ATCC 29213: broth microdilution, 16–24 h at 37 °C, unit inferred
Experimental: (§1) The in vitro antibacterial activity of the synthesized benzamides 7–12 and 31–37 was evaluated against a panel of eight different bacterial strains. The Gram-positive bacterial strains comprised S. aureus, S. pneumoniae and E. faecalis, and the panel of Gram-negative bacteria consisted of E. coli, K. pneumoniae, A. baumannii and P. aeruginosa.
(§2) The selected bacterial strains were Gram-negative Escherichia coli (ATCC 25922) and Gram-positive Staphylococcus aureus (ATCC 29213) and S. Pneumoniae (ATCC 49619). The Saccharomyces cerevisiae ATCC 7752 strain was tested as a eukaryotic model organism. Synthesized compounds were prepared as 10 mM DMSO solutions and tested in a final concentration range of 100–0.2 µM [39].
(§3) Broth microdilution testing was performed according to CLSI (Clinical Laboratory Standards Institute) guidelines. The MIC (minimal inhibitory concentration) value was defined as the last tested concentration of a compound at which there is no visible growth of bacteria. Inoculums for each microorganism were prepared using the direct colony suspension method, where broth solutions that achieved turbidity equivalent to 0.5 McFarland standards were additionally diluted 100× with cation-adjusted MH media (Becton Dickinson). All test plates were incubated for 16–24 h at 37 °C.

E. faecalis ATCC 29212 = experiment: as above; assay type: cell-based; settings: for MIC E. faecalis ATCC 29212: broth microdilution, 16–24 h at 37 °C, unit inferred
Experimental: as §1, §2, §3

A. baumannii ATCC 17978 = experiment: as above; assay type: cell-based; settings: 16–24 h at 37 °C, unit inferred
Experimental: as §1, §2, §3

P. aeruginosa ATCC 27853 = experiment: as above; assay type: cell-based; settings: 16–24 h at 37 °C, unit inferred
Experimental: as §1, §2, §3

E. coli efflux del. = experiment: microbe, parasite or virus in culture; assay type: cell-based, Escherichia coli; settings: broth microdilution, 16–24 h at 37 °C; unit inferred
Experimental: as §1, §2, §3

E. coli ATCC 25922 = experiment: Antibacterial activity in vitro, broth microdilution MIC; assay type: cell-based, Escherichia coli; settings: 16–24 h at 37 °C, unit inferred
Experimental: as §1, §2, §3

[1] = Ferric reducing/antioxidant power (FRAP assay); design: FRAP: unit not given here; settings: for FRAP: Fe2+ equivalents, triplicate; for FRAP ferric reducing/antioxidant power, in words: compared to the standard BHT
Experimental: (§4) The synthesized benzazole acrylonitrile derivatives were screened for their antioxidative potency by using in vitro assays, namely DPPH and ABTS as free radical scavenging assays and FRAP as a ferric reducing/antioxidant power assay.
The antioxidant activity of a substance is directly related to its reducing power.
The FRAP method was carried out according to previously described procedures with some modifications to make it compatible with an assay on a 96-well microplate. All results were expressed as Fe^2+ equivalents (Fe^2+ µmol). Ferrous sulphate (FeSO4 × 7H2O) was used to develop a standard curve of 20–2000 µmol/l for the FRAP test.

H460 (lung carcinoma) = experiment: Antiproliferative activity in vitro, MTT assay, 72 h; assay type: cell-based; settings: Homo sapiens, NCI-H460, 72 h incubation
Experimental: (§5) The experiments were carried out on four human cell lines which are derived from three cancer types: H460 (lung carcinoma), HCT 116 (colorectal carcinoma), MCF-7 (human breast cancer) and the non-cancerous cell line HEK 293 (human embryonic kidney).
(§6) The results are compared with the known antiproliferative agents doxorubicin and etoposide. […] Therefore, it is not clear whether the observed antiproliferative activity is due to the biological activity of the compounds or to precipitation.
(§7) The experiments were performed on four human cell lines, including HCT 116 (colon carcinoma), H 460 (lung carcinoma), MCF-7 (breast carcinoma) and HEK 293 (human embryonic kidney cells), in line with previously published experimental procedures. Briefly, the cells were grown in DMEM medium with the addition of 10% fetal bovine serum (FBS), 2 mM of L-glutamine, 100 U/mL of penicillin and 100 µg/mL of streptomycin and cultured as monolayers at 37 °C in a humidified atmosphere with 5% CO2. Cells were seeded at 2 × 10^3 cells/well in standard 96-well microtiter plates and left to attach for 24 h. The next day, a test compound was added in five serial 10-fold dilutions. The rate of cell growth was evaluated after 72 h of incubation with MTT assays. […] Each test was performed in quadruplicate in at least two individual experiments.

[2] = test system: HCT 116 (colorectal carcinoma); experiment: as above; assay type: cell-based; settings: Homo sapiens, 72 h incubation, '-' with footnote a = did not show biological activity due to precipitation
Experimental: as §5, §6, §7

[3] = test system: MCF-7 (human breast cancer); experiment: as above; assay type: cell-based; settings: MCF7, 72 h incubation
Experimental: as §5, §6, §7

[4] = test system: HEK 293 (human embryonic kidney); experiment: Antiproliferative activity in vitro, MTT assay, 72 h, non-cancerous cell line; assay type: cell-based; settings: HEK293, 72 h incubation, '-' with footnote a = did not show biological activity due to precipitation
Experimental: as §5, §6, §7

[5] = DPPH free radical scavenging assay; settings: compared to the standard BHT
Description: as §4
The well-known antioxidant butylated hydroxytoluene (BHT) was used as a standard for comparing activity during testing. The DPPH assay is a standard commonly used test for the in vitro assessment of the antioxidant capacity of novel compounds by using their ability to scavenge the stable radical 1,1-diphenyl-picrylhydrazyl. […] Another test used to evaluate the antioxidative capacity of novel compounds was the ABTS test, by which their activity was evaluated by scavenging the stable radical 3-ethylbenzthiazoline-6-sulphonic acid.
Determination of the reducing activity of the stable radical 1,1-diphenyl-picrylhydrazyl (DPPH):
The reducing activity of the investigated systems was measured by the DPPH method according to previously described procedures with modifications to ensure their use on a 96-well microplate. Briefly, equal volumes of various concentrations of the tested molecules (dissolved in DMSO) were added to a solution of DPPH (final concentration of 50 µM in absolute ethanol). Ethanol and DMSO were used as control solutions in line with earlier reports. The radical scavenging activity was calculated using the following formula:[(A517 control − A517 compound)/A517 control] × 100.
The IC50 values were calculated from dose–response curves using nonlinear regression analysis with the GraphPad Prism 8 Ink. program. All measurements were carried out in triplicate.

Row | SMILES | MIC S. aureus ATCC 29213 (S. aureus ATCC 29213) [µM] | MIC E. faecalis ATCC 29212 (E. faecalis ATCC 29212) [µM] | MIC A. baumannii ATCC 17978 (A. baumannii ATCC 17978) [µM] | MIC P. aeruginosa ATCC 27853 (P. aeruginosa ATCC 27853) [µM] | MIC E. coli efflux del. (E. coli efflux del.) [µM] | MIC E. coli ATCC 25922 (E. coli ATCC 25922) [µM] | FRAP [1] | FRAP ferric reducing/antioxidant power, in words [1] | IC50 (H460 (lung carcinoma)) [nM] | IC50 [2] [nM] | IC50 [3] [nM] | IC50 [4] [nM] | MIC (E. faecalis ATCC 29212; Enterococcus faecalis, ATCC29212, read-out: MIC E. faecalis) [µM] | Selectivity of antibacterial activity, in words (E. faecalis ATCC 29212; against the Gram-positive strain E. faecalis) | DPPH free radical scavenging activity, in words [5] | melting point [°C] | MIC (S. aureus ATCC 29213; Staphylococcus aureus, ATCC29213, read-out: MIC S. aureus) [µM]
1 | CC1(C)S[C@@H]2[C@H](NC(=O)[C@H](N)c3ccccc3)C(=O)N2[C@H]1C(=O)O [Ampicillin, ampicillin, reference compound] | 0.5 (≈ 0.175 µg/mL) | 1 (≈ 0.349 µg/mL) | 32 (≈ 11.2 µg/mL) | > 64 | – | – | – | – | – | – | – | – | – | – | – | – | –
2 | CC[C@H]1OC(=O)[C@H](C)[C@@H](O[C@H]2C[C@@](C)(OC)[C@@H](O)[C@H](C)O2)[C@H](C)[C@@H](O[C@@H]2O[C@H](C)C[C@H](N(C)C)[C@H]2O)[C@](C)(O)C[C@@H](C)CN(C)[C@H](C)[C@@H](O)[C@]1(C)O [Azithromycin, azithromycin, reference compound] | 1 (≈ 0.749 µg/mL) | 8 (≈ 5.99 µg/mL) | 8 (≈ 5.99 µg/mL) | 32 (≈ 24 µg/mL) | 0.5 (≈ 0.374 µg/mL) | 4 (≈ 3 µg/mL) | – | – | – | – | – | – | – | – | – | – | –
3 | CC(C)(O/N=C(\C(=O)N[C@@H]1C(=O)N2C(C(=O)[O-])=C(C[n+]3ccccc3)CS[C@H]12)c1csc(N)n1)C(=O)O [Ceftazidime, ceftazidime, reference compound] | 4 (≈ 2.19 µg/mL) | > 64 | 4 (≈ 2.19 µg/mL) | 2 (≈ 1.09 µg/mL) | – | – | – | – | – | – | – | – | – | – | – | – | –
4 | O=C(O)c1cn(C2CC2)c2cc(N3CCNCC3)c(F)cc2c1=O [Ciprofloxacin, ciprofloxacin, reference compound] | 0.25 (≈ 0.0828 µg/mL) | 4 (≈ 1.33 µg/mL) | – | – | – | – | – | – | – | – | – | – | – | – | – | – | –
5 | COc1c(O)cc(C(=O)Nc2nc3ccccc3[nH]2)cc1O [Compound 8, N-(1H-benzo[d]imidazol-2-yl)-3,5-dihydroxy-4-methoxybenzamide] | > 64 | 8 (≈ 2.39 µg/mL) | > 64 | > 64 | > 64 | > 64 | 2461.93 ± 21.42 | excellent in vitro antioxidant activity | 91800 ± 1000 | > 100000 | 52900 ± 16000 | 49400 ± 3300 | 8 (≈ 2.39 µg/mL) | selective antibacterial activity | significantly improved | – | –
6 | CC(C)Cn1c(NC(=O)c2cc(O)c(O)c(O)c2)nc2ccccc21 [Compound 33, 3,4,5-Trihydroxy-N-(1-isobutyl-1H-benzo[d]imidazol-2-yl)benzamide] | 32 (≈ 10.9 µg/mL) | 64 (≈ 21.8 µg/mL) | > 64 | > 64 | 64 (≈ 21.8 µg/mL) | > 64 | 4154.35 ± 1.26 | excellent in vitro antioxidant activity | > 100000 | 43200 ± 18600 | 90800 ± 1600 | 77100 ± 7900 | – | – | significantly improved | 291 to 293 | 32 (≈ 10.9 µg/mL)
7 | COc1cccc2c1C(=O)c1c(O)c3c(c(O)c1C2=O)C[C@@](O)(C(=O)CO)C[C@@H]3O[C@H]1C[C@H](N)[C@H](O)[C@H](C)O1 [Doxorubicin, doxorubicin, reference compound] | – | – | – | – | – | – | – | – | 40 ± 10 | 40 ± 10 | 9 ± 4 | 20 ± 10 | – | – | – | – | –
8 | COc1cc([C@@H]2c3cc4c(cc3[C@@H](O[C@@H]3O[C@@H]5CO[C@@H](C)O[C@H]5[C@H](O)[C@H]3O)[C@H]3COC(=O)[C@H]23)OCO4)cc(OC)c1O [Etoposide, etoposide, reference compound] | – | – | – | – | – | – | – | – | 2200 ± 400 | 2200 ± 400 | 600 ± 100 | 650 ± 20 | – | – | – | – | –
9 | CNC(C)C1CCC(N)C(OC2C(N)CC(N)C(OC3OCC(C)(O)C(NC)C3O)C2O)O1 (stereo not shown) [Gentamicin, gentamicin, reference compound] | 0.25 (≈ 0.119 µg/mL) | 16 (≈ 7.64 µg/mL) | 4 (≈ 1.91 µg/mL) | 2 (≈ 0.955 µg/mL) | 1 (≈ 0.478 µg/mL) | 0.5 (≈ 0.239 µg/mL) | – | – | – | – | – | – | – | – | – | – | –
10 | C[C@@H](O)[C@H]1C(=O)N2C(C(=O)O)=C(S[C@@H]3CN[C@H](C(=O)N(C)C)C3)[C@H](C)[C@H]12 [Meropenem, meropenem, reference compound] | < 0.125 | 8 (≈ 3.07 µg/mL) | 0.5 (≈ 0.192 µg/mL) | 1 (≈ 0.383 µg/mL) | < 0.125 | < 0.125 | – | – | – | – | – | – | – | – | – | – | –
11 | CN(C)[C@@H]1C(O)=C(C(N)=O)C(=O)[C@@]2(O)C(O)=C3C(=O)c4c(O)cccc4[C@@](C)(O)[C@H]3C[C@@H]12 [Tetracycline, tetracycline, reference compound] | – | – | – | – | 32 (≈ 14.2 µg/mL) | – | – | – | – | – | – | – | – | – | – | – | –
12 | NC[C@H]1O[C@H](O[C@H]2[C@H](O)[C@@H](O[C@H]3O[C@H](CO)[C@@H](O)[C@H](N)[C@H]3O)[C@H](N)C[C@@H]2N)[C@H](N)C[C@@H]1O [Tobramycin, reference compound] | 0.25 (≈ 0.117 µg/mL) | 8 (≈ 3.74 µg/mL) | 2 (≈ 0.935 µg/mL) | 0.5 (≈ 0.234 µg/mL) | 1 (≈ 0.468 µg/mL) | 1 (≈ 0.468 µg/mL) | – | – | – | – | – | – | – | – | – | – | –

From paper PMC11085308, “Design, Synthesis and Biological Activity of Novel Methoxy- and Hydroxy-Substituted N-Benzimidazole-Derived Carboxamides” (Molecules, 2024)
